From US20250073241A1, “Combination Therapies Using PRMT5 Inhibitors for the Treatment of Cancer” (MIRATI THERAPEUTICS, INC., priority 2021, published 2025)

Columns and labels:
Assay type in all cases: in vivo, mice
[1] = test system: PANC-05-04 xenograft tumors; test: PANC-05-04 pancreatic tumor xenograft, Example 7; settings: Palbociclib 130 mg/kg PO QD
Experimental: (§1) The compound of the disclosure was evaluated in a couple of different pancreatic tumor xenograft models: PANC-05-04 and BXPC-3.

HCC4006 xenograft tumors = test: HCC4006 lung tumor xenograft, Example 3; settings: Palbociclib 130 mg/kg PO QD
Experimental: (§2) The compound of the disclosure was evaluated in several different lung tumor xenograft models: HCC4006, SW1573 PRMT5-044, H1650, and A549 PRMT-034. […] 2021, incorporated by reference in its entirety.

BXPC-3 xenograft tumors = test: BXPC-3 pancreatic tumor xenograft, Example 8; settings: Palbociclib 130 mg/kg PO QD
Experimental: as §1

MKN45 xenograft tumors = test: MKN45 gastric tumor xenograft, Example 9; settings: Palbociclib 130 mg/kg PO QD
Experimental: Immunodeficient female nu/nu mice were implanted with 5×10^6 LU99 lung cancer cells in 50% Matrigel. Tumors were measured using calipers until they reached approximately 150-200 mm^3. Animals were randomized to receive A) vehicle (0.5% methylcellulose (4000 cps)/0.2% Tween80 in water), B) a PRMT5 inhibitor, C) CDK4/6 inhibitor, or D) the PRMT5 inhibitor and CDK4/6 inhibitor, all administered orally (PO) for 21 days. Tumor volume was measured twice a week (n=5/treatment group). Average tumor volume and standard error of the mean was calculated and plotted at each study day in GraphPad.

[2] = test system: A549 PRMT-034 xenograft tumors; test: A549 PRMT-034 lung tumor xenograft, Example 6; settings: Palbociclib 130 mg/kg PO QD
Experimental: as §2

H1650 xenograft tumors = test: H1650 lung tumor xenograft, Example 5; settings: Palbociclib 130 mg/kg PO QD
Experimental: as §2

[3] = test system: KRAS^G12C and CDKN2A/MTAP^DEL lung tumor xenograft LU99 model; test: LU99 lung tumor xenograft, Example 1 (MRTX9768 / palbociclib); settings: palbociclib 130 mg/kg PO QD
Experimental: (§3) 2021, incorporated by reference in its entirety.
The CDK4/6 inhibitor used in this example was palbociclib administered at 130mg/kg once a day (QD). Palbociclib is 6-acetyl-8-cyclopentyl-5-methyl-2-[(5-piperazin-1-ylpyridin-2-yl)amino]pyrido[2,3-d]pyrimidin-7-one, and is sold as Ibrance® available from Pfizer Inc., New York, New York.

[4] = test system: KRAS^G12C and CDKN2A/MTAP^DEL lung tumor xenograft LU99 model; test: LU99 lung tumor xenograft, Example 2 (MRTX7477 / palbociclib); settings: palbociclib 130 mg/kg PO QD
Source text: as §3

[5] = Day 0, MRTX1719 100 mg/kg PO QD
[6] = Day 3, MRTX1719 100 mg/kg PO QD
[7] = Day 7, MRTX1719 100 mg/kg PO QD
[8] = Day 10, MRTX1719 100 mg/kg PO QD
[9] = Day 14, MRTX1719 100 mg/kg PO QD
[10] = Day 17, MRTX1719 100 mg/kg PO QD
[11] = Day 20, MRTX1719 100 mg/kg PO QD
[12] = Day 2, MRTX1719 100 mg/kg PO QD
[13] = Day 5, MRTX1719 100 mg/kg PO QD
[14] = Day 9, MRTX1719 100 mg/kg PO QD
[15] = Day 12, MRTX1719 100 mg/kg PO QD
[16] = Day 16, MRTX1719 100 mg/kg PO QD
[17] = Day 13, MRTX1719 50 mg/kg PO QD
[18] = Day 16, MRTX1719 50 mg/kg PO QD
[19] = Day 20, MRTX1719 50 mg/kg PO QD
[20] = Day 1, MRTX1719 100 mg/kg PO QD
[21] = Day 8, MRTX1719 100 mg/kg PO QD
[22] = Day 15, MRTX1719 100 mg/kg PO QD
[23] = Day 19, MRTX1719 100 mg/kg PO QD
[24] = Day 22, MRTX1719 100 mg/kg PO QD
[25] = Day 26, MRTX1719 100 mg/kg PO QD
[26] = Day 29, MRTX1719 100 mg/kg PO QD
[27] = Day 34, MRTX1719 100 mg/kg PO QD

With `Cn1ncc(-c2ccc3c(=O)[nH]nc(CN)c3c2)c1-c1c(F)c(Cl)cc(OC2CC2)c1C#N` [MRTX1719, (2M)-2-(4-(4-(aminomethyl)-1-oxo-1,2-dihydrophthalazin-6-yl)-1-methyl-1H-pyrazol-5-y1)-4-chloro-6-cyclopropoxy-3-fluorobenzonitrile] the “Tumor Volume, Mean” value [1, 5] was 149 mm^3, the “Tumor Volume, Mean” value [1, 6] was 382 mm^3 and the “Tumor Volume, Mean” value [1, 7] was 519 mm^3. For the same molecule, the “Tumor Volume, Mean” value [1, 8] was 559 mm^3, the “Tumor Volume, Mean” value [1, 9] was 563 mm^3 and the “Tumor Volume, Mean” value [1, 10] was 624 mm^3. The “Tumor Volume, Mean” value [1, 11] was 603 mm^3, the “Tumor Volume, Mean” value (HCC4006 xenograft tumors; [5]) was 126 mm^3 and the “Tumor Volume, Mean” value (HCC4006 xenograft tumors; [12]) was 150 mm^3. For the same molecule, the “Tumor Volume, Mean” value (HCC4006 xenograft tumors; [13]) was 159 mm^3, the “Tumor Volume, Mean” value (HCC4006 xenograft tumors; [14]) was 154 mm^3 and the “Tumor Volume, Mean” value (HCC4006 xenograft tumors; [15]) was 156 mm^3. For the same molecule, the “Tumor Volume, Mean” value (HCC4006 xenograft tumors; [16]) was 159 mm^3, the “Tumor Volume, Mean” value (HCC4006 xenograft tumors; [11]) was 78 mm^3 and the “Tumor Volume, Mean” value (BXPC-3 xenograft tumors; Day 0, MRTX1719 50 mg/kg PO QD) was 122 mm^3. For the same molecule, the “Tumor Volume, Mean” value (BXPC-3 xenograft tumors; Day 3, MRTX1719 50 mg/kg PO QD) was 174 mm^3, the “Tumor Volume, Mean” value (BXPC-3 xenograft tumors; Day 6, MRTX1719 50 mg/kg PO QD) was 206 mm^3 and the “Tumor Volume, Mean” value (BXPC-3 xenograft tumors; Day 9, MRTX1719 50 mg/kg PO QD) was 310 mm^3. For the same molecule, the “Tumor Volume, Mean” value (BXPC-3 xenograft tumors; [17]) was 359 mm^3, the “Tumor Volume, Mean” value (BXPC-3 xenograft tumors; [18]) was 372 mm^3 and the “Tumor Volume, Mean” value (BXPC-3 xenograft tumors; [19]) was 368 mm^3. The “Tumor Volume, Mean” value (MKN45 xenograft tumors; [5]) was 105 mm^3, the “Tumor Volume, Mean” value (MKN45 xenograft tumors; [6]) was 165 mm^3 and the “Tumor Volume, Mean” value (MKN45 xenograft tumors; [7]) was 207 mm^3. For the same molecule, the “Tumor Volume, Mean” value (MKN45 xenograft tumors; [8]) was 221 mm^3, the “Tumor Volume, Mean” value (MKN45 xenograft tumors; [9]) was 214 mm^3 and the “Tumor Volume, Mean” value (MKN45 xenograft tumors; [10]) was 230 mm^3. The “Tumor Volume, Mean” value (MKN45 xenograft tumors; [11]) was 221 mm^3, the “Tumor Volume, Mean” value [2, 20] was 118 mm^3 and the “Tumor Volume, Mean” value [2, 21] was 169 mm^3. For the same molecule, the “Tumor Volume, Mean” value [2, 15] was 200 mm^3, the “Tumor Volume, Mean” value [2, 22] was 210 mm^3 and the “Tumor Volume, Mean” value [2, 23] was 214 mm^3. For the same molecule, the “Tumor Volume, Mean” value [2, 24] was 221 mm^3, the “Tumor Volume, Mean” value [2, 25] was 263 mm^3 and the “Tumor Volume, Mean” value [2, 26] was 288 mm^3. The “Tumor Volume, Mean” value [2, 27] was 325 mm^3, the “Tumor Volume, Mean” value (H1650 xenograft tumors; [5]) was 146 mm^3 and the “Tumor Volume, Mean” value (H1650 xenograft tumors; [6]) was 231 mm^3. For the same molecule, the “Tumor Volume, Mean” value (H1650 xenograft tumors; [7]) was 471 mm^3, the “Tumor Volume, Mean” value (H1650 xenograft tumors; [8]) was 599 mm^3 and the “Tumor Volume, Mean” value (H1650 xenograft tumors; [9]) was 625 mm^3. For the same molecule, the “Tumor Volume, Mean” value (H1650 xenograft tumors; [10]) was 711 mm^3 and the “Tumor Volume, Mean” value (H1650 xenograft tumors; [11]) was 635 mm^3.

With `CC(=O)c1c(C)c2cnc(Nc3ccc(N4CCNCC4)cn3)nc2n(C2CCCC2)c1=O` [palbociclib, 6-acetyl-8-cyclopentyl-5-methyl-2-[(5-piperazin-1-ylpyridin-2-yl)amino]pyrido[2,3-d]pyrimidin-7-one] the “Tumor Volume, Mean” value [1, 5] was 149 mm^3, the “Tumor Volume, Mean” value [1, 6] was 319 mm^3 and the “Tumor Volume, Mean” value [1, 7] was 365 mm^3. For the same molecule, the “Tumor Volume, Mean” value [1, 8] was 378 mm^3, the “Tumor Volume, Mean” value [1, 9] was 341 mm^3 and the “Tumor Volume, Mean” value [1, 10] was 391 mm^3. The “Tumor Volume, Mean” value [1, 11] was 350 mm^3, the “Tumor Volume, Mean” value ([3]; Day 0, MRTX9768 100 mg/kg PO BID) was 184.39 mm^3 and the “Tumor Volume, Mean” value ([3]; Day 3, MRTX9768 100 mg/kg PO BID) was 247.02 mm^3. For the same molecule, the “Tumor Volume, Mean” value ([3]; Day 7, MRTX9768 100 mg/kg PO BID) was 355.77 mm^3, the “Tumor Volume, Mean” value ([3]; Day 10, MRTX9768 100 mg/kg PO BID) was 482.60 mm^3 and the “Tumor Volume, Mean” value ([3]; Day 14, MRTX9768 100 mg/kg PO BID) was 731.56 mm^3. For the same molecule, the “Tumor Volume, Mean” value ([3]; Day 17, MRTX9768 100 mg/kg PO BID) was 914.41 mm^3, the “Tumor Volume, Mean” value ([3]; Day 21, MRTX9768 100 mg/kg PO BID) was 1148.44 mm^3 and the “Tumor Volume, Mean” value (HCC4006 xenograft tumors; [5]) was 127 mm^3. For the same molecule, the “Tumor Volume, Mean” value (HCC4006 xenograft tumors; [12]) was 155 mm^3, the “Tumor Volume, Mean” value (HCC4006 xenograft tumors; [13]) was 143 mm^3 and the “Tumor Volume, Mean” value (HCC4006 xenograft tumors; [14]) was 117 mm^3. For the same molecule, the “Tumor Volume, Mean” value (HCC4006 xenograft tumors; [15]) was 115 mm^3, the “Tumor Volume, Mean” value (HCC4006 xenograft tumors; [16]) was 111 mm^3 and the “Tumor Volume, Mean” value (HCC4006 xenograft tumors; [11]) was 100 mm^3. For the same molecule, the “Tumor Volume, Mean” value (BXPC-3 xenograft tumors; Day 0, MRTX1719 50 mg/kg PO QD) was 122 mm^3, the “Tumor Volume, Mean” value (BXPC-3 xenograft tumors; Day 3, MRTX1719 50 mg/kg PO QD) was 162 mm^3 and the “Tumor Volume, Mean” value (BXPC-3 xenograft tumors; Day 6, MRTX1719 50 mg/kg PO QD) was 174 mm^3. For the same molecule, the “Tumor Volume, Mean” value (BXPC-3 xenograft tumors; Day 9, MRTX1719 50 mg/kg PO QD) was 187 mm^3, the “Tumor Volume, Mean” value (BXPC-3 xenograft tumors; [17]) was 195 mm^3 and the “Tumor Volume, Mean” value (BXPC-3 xenograft tumors; [18]) was 190 mm^3. The “Tumor Volume, Mean” value (BXPC-3 xenograft tumors; [19]) was 193 mm^3, the “Tumor Volume, Mean” value (MKN45 xenograft tumors; [5]) was 106 mm^3 and the “Tumor Volume, Mean” value (MKN45 xenograft tumors; [6]) was 158 mm^3. The “Tumor Volume, Mean” value (MKN45 xenograft tumors; [7]) was 236 mm^3, the “Tumor Volume, Mean” value (MKN45 xenograft tumors; [8]) was 264 mm^3 and the “Tumor Volume, Mean” value (MKN45 xenograft tumors; [9]) was 330 mm^3. The “Tumor Volume, Mean” value (MKN45 xenograft tumors; [10]) was 434 mm^3, the “Tumor Volume, Mean” value (MKN45 xenograft tumors; [11]) was 474 mm^3 and the “Tumor Volume” value ([4]; Day 1, MRTX7477 200 mg/kg PO BID) was 209.8 mm^3. The “Tumor Volume” value ([4]; Day 5, MRTX7477 200 mg/kg PO BID) was 215.9 mm^3, the “Tumor Volume” value ([4]; Day 8, MRTX7477 200 mg/kg PO BID) was 277.3 mm^3 and the “Tumor Volume” value ([4]; Day 12, MRTX7477 200 mg/kg PO BID) was 359.4 mm^3. For the same molecule, the “Tumor Volume” value ([4]; Day 15, MRTX7477 200 mg/kg PO BID) was 413.5 mm^3, the “Tumor Volume” value ([4]; Day 19, MRTX7477 200 mg/kg PO BID) was 675.9 mm^3 and the “Tumor Volume” value ([4]; Day 21, MRTX7477 200 mg/kg PO BID) was 827.0 mm^3. For the same molecule, the “Tumor Volume” value ([4]; Day −2, MRTX7477 200 mg/kg PO BID) was 133.4 mm^3, the “Tumor Volume, Mean” value [2, 20] was 118 mm^3 and the “Tumor Volume, Mean” value [2, 13] was 134 mm^3. The “Tumor Volume, Mean” value [2, 21] was 155 mm^3, the “Tumor Volume, Mean” value [2, 15] was 177 mm^3 and the “Tumor Volume, Mean” value [2, 22] was 189 mm^3. The “Tumor Volume, Mean” value [2, 23] was 179 mm^3, the “Tumor Volume, Mean” value [2, 24] was 186 mm^3 and the “Tumor Volume, Mean” value [2, 25] was 220 mm^3. For the same molecule, the “Tumor Volume, Mean” value [2, 26] was 255 mm^3, the “Tumor Volume, Mean” value [2, 27] was 263 mm^3 and the “Tumor Volume, Mean” value (H1650 xenograft tumors; [5]) was 147 mm^3. For the same molecule, the “Tumor Volume, Mean” value (H1650 xenograft tumors; [6]) was 268 mm^3, the “Tumor Volume, Mean” value (H1650 xenograft tumors; [7]) was 356 mm^3 and the “Tumor Volume, Mean” value (H1650 xenograft tumors; [8]) was 493 mm^3. The “Tumor Volume, Mean” value (H1650 xenograft tumors; [9]) was 480 mm^3, the “Tumor Volume, Mean” value (H1650 xenograft tumors; [10]) was 589 mm^3 and the “Tumor Volume, Mean” value (H1650 xenograft tumors; [11]) was 743 mm^3.
